This series has as its system CCRIS mutagenicity, Ames/micronucleus/aberration tests. The experiment in a line: CCRIS mutagenicity studies. Conditions: Test System: AMES SALMONELLA TYPHIMURIUM
Setting [1] is: Strain/Indicator: TA100, Metabolic Activation: NONE, Method: PREINCUBATION
Where [2] appears, read: Strain/Indicator: TA1535, Metabolic Activation: NONE, Method: PREINCUBATION
Where [3] appears, read: Strain/Indicator: TA1537, Metabolic Activation: NONE, Method: PREINCUBATION

Molecules are shown by their SMILES. The source made the active and inactive calls. The rule behind the calls is not given here.

For the compound `O=C1N(CO)C(O)C(O)N1CO` (centres undefined), the mutagenic call by setting is: (Strain/Indicator: TA98, Metabolic Activation: HAMSTER, LIVER, AROCLOR 1254 (10%), Method: PREINCUBATION) “inactive; negative”; (Strain/Indicator: TA98, Metabolic Activation: HAMSTER, LIVER, S-9, AROCLOR 1254 (10%), Method: PREINCUBATION) “inactive; negative”; (Strain/Indicator: TA98, Metabolic Activation: RAT, LIVER, S-9, AROCLOR 1254 (10%), Method: PREINCUBATION) “inactive; negative”; under setting [1], “inactive; negative”; (Strain/Indicator: TA1535, Metabolic Activation: HAMSTER, LIVER, S-9, AROCLOR 1254 (10%), Method: PREINCUBATION) “inactive; negative”; under setting [2], “inactive; negative”. Besides, the mutagenic call is, setting by setting: (Strain/Indicator: TA1535, Metabolic Activation: RAT, LIVER, S-9, AROCLOR 1254 (10%), Method: PREINCUBATION) “inactive; negative”; (Strain/Indicator: TA1537, Metabolic Activation: HAMSTER, LIVER, S-9, AROCLOR 1254 (10%), Method: PREINCUBATION) “inactive; negative”; under setting [3], “inactive; negative”; (Strain/Indicator: TA1537, Metabolic Activation: RAT, LIVER, S-9, AROCLOR 1254 (10%), Method: PREINCUBATION) “inactive; negative”.

For the compound `O=C1CCCc2cc3c(cc21)cc([N+](=O)[O-])c1ccccc13`, the mutagenic call by setting is: (Strain/Indicator: TA98-1,8-DNP6, Metabolic Activation: NONE) “active; positive”; (Strain/Indicator: TA98-1,8-DNP6, Metabolic Activation: S-9) “inactive; negative”; (Strain/Indicator: TA98, Metabolic Activation: NONE) “active; positive”; (Strain/Indicator: TA98, Metabolic Activation: S-9) “active; positive”; (Strain/Indicator: TA98NR, Metabolic Activation: NONE) “active; positive”; (Strain/Indicator: TA98NR, Metabolic Activation: S-9) “active; positive”. Further, the mutagenic call (Strain/Indicator: TA100, Metabolic Activation: NONE) is “active; positive”; the mutagenic call (Strain/Indicator: TA100, Metabolic Activation: S-9) is “active; positive”; the mutagenic call (Strain/Indicator: TA100NR, Metabolic Activation: NONE) was “active; positive”; the mutagenic call (Strain/Indicator: TA100NR, Metabolic Activation: S-9) was “active; positive”.

For `CC(=O)c1oc([N+](=O)[O-])c(-c2ccccc2)c1-c1ccccc1`, the mutagenic call by setting is: (Strain/Indicator: TA98(NR), Metabolic Activation: NONE, Method: STANDARD PLATE) “inactive; negative”; (Strain/Indicator: TA98, Metabolic Activation: NONE, Method: STANDARD PLATE) “active; positive”; (Strain/Indicator: TA100(NR), Metabolic Activation: NONE, Method: STANDARD PLATE) “inactive; negative”; (Strain/Indicator: TA100, Metabolic Activation: NONE, Method: STANDARD PLATE) “active; positive”.

Take `NC(N)=NC(=O)c1nc(Cl)c(N)nc1N`: the mutagenic call is “inactive; negative” (Strain/Indicator: TA97, Metabolic Activation: HAMSTER, LIVER, S-9, AROCLOR 1254 (5, 10 OR 30%), Method: PREINCUBATION); “inactive; negative” (Strain/Indicator: TA97, Metabolic Activation: NONE, Method: PREINCUBATION); “inactive; negative” (Strain/Indicator: TA97, Metabolic Activation: RAT, LIVER, S-9, AROCLOR 1254 (5, 10 OR 30%), Method: PREINCUBATION); “inactive; negative” (Strain/Indicator: TA98, Metabolic Activation: HAMSTER, LIVER, S-9, AROCLOR 1254 (30%), Method: PREINCUBATION); “inactive; negative” (Strain/Indicator: TA98, Metabolic Activation: NONE, Method: PREINCUBATION); “inactive; negative” (Strain/Indicator: TA98, Metabolic Activation: RAT, LIVER, S-9, AROCLOR 1254 (30%), Method: PREINCUBATION). In addition, the mutagenic call (Strain/Indicator: TA100, Metabolic Activation: HAMSTER, LIVER, S-9, AROCLOR 1254 (30%), Method: PREINCUBATION) is “inactive; negative”; the mutagenic call under setting [1] is “inactive; negative”; the mutagenic call (Strain/Indicator: TA100, Metabolic Activation: RAT, LIVER, S-9, AROCLOR 1254 (30%), Method: PREINCUBATION) was “inactive; negative”; the mutagenic call (Strain/Indicator: TA1535, Metabolic Activation: HAMSTER, LIVER, S-9, AROCLOR 1254 (30%), Method: PREINCUBATION) was “inactive; negative”; the mutagenic call under setting [2] was “inactive; negative”; the mutagenic call (Strain/Indicator: TA1535, Metabolic Activation: RAT, LIVER, S-9, AROCLOR 1254 (30%), Method: PREINCUBATION) was “inactive; negative”. Further, the mutagenic call (Strain/Indicator: TA1537, Metabolic Activation: HAMSTER, LIVER, S-9, AROCLOR 1254 (30%), Method: PREINCUBATION) was “active; positive”; the mutagenic call under setting [3] is “active; positive”; the mutagenic call (Strain/Indicator: TA1537, Metabolic Activation: RAT, LIVER, S-9, AROCLOR 1254 (30%), Method: PREINCUBATION) was “active; positive”.
